Source: PubChem BioAssay AID248 (DTP/NCI, 2004)
Inconclusive results and toxic doses are left out.

System: L1210 leukemia ip in BDF1 mice, survival T/C
Test: NCI In Vivo Anticancer Drug Screen. Data for tumor model L1210 Leukemia (intraperitoneal) in B6D2F1 (BDF1) mice
Conditions: endpoint: mean survival time, higher = longer survival
In short: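 Survival endpoint. Drug-treated group vs vehicle group, expressed as T divided by C. Tumor passaged by transplantation.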

[1] = dose: 100.0 mg/kg/injection, schedule: Q04DX002 (ip), vehicle: saline with Tween-80
[2] = dose: 200.0 mg/kg/injection, schedule: Q04DX002 (ip), vehicle: saline with Tween-80
[3] = dose: 400.0 mg/kg/injection, schedule: Q04DX002 (ip), vehicle: saline with Tween-80
[4] = dose: 100.0 mg/kg/injection, schedule: Q01DX001 (ip), vehicle: saline
[5] = dose: 200.0 mg/kg/injection, schedule: Q01DX001 (ip), vehicle: saline
[6] = dose: 100.0 mg/kg/injection, schedule: Q01DX009 (ip), vehicle: acetone
[7] = dose: 100.0 mg/kg/injection, schedule: Q04DX003 (ip), vehicle: saline
[8] = dose: 200.0 mg/kg/injection, schedule: Q01DX009 (ip), vehicle: acetone
[9] = dose: 100.0 mg/kg/injection, schedule: Q01DX009 (ip), vehicle: saline with Tween-80
[10] = dose: 100.0 mg/kg/injection, schedule: Q04DX003 (ip), vehicle: saline with Tween-80
[11] = dose: 200.0 mg/kg/injection, schedule: Q01DX009 (ip), vehicle: saline with Tween-80
[12] = dose: 200.0 mg/kg/injection, schedule: Q04DX003 (ip), vehicle: saline with Tween-80
[13] = dose: 400.0 mg/kg/injection, schedule: Q01DX009 (ip), vehicle: saline with Tween-80
[14] = dose: 400.0 mg/kg/injection, schedule: Q04DX003 (ip), vehicle: saline with Tween-80
[15] = dose: 100.0 mg/kg/injection, schedule: Q01DX001 (ip), vehicle: carboxymethylcellulose (CMC)
[16] = dose: 200.0 mg/kg/injection, schedule: Q01DX001 (ip), vehicle: carboxymethylcellulose (CMC)
[17] = dose: 100.0 mg/kg/injection, schedule: Q01DX009 (ip), vehicle: Klucel (hydroxypropylcellulose) (HPC)
[18] = dose: 200.0 mg/kg/injection, schedule: Q01DX009 (ip), vehicle: Klucel (hydroxypropylcellulose) (HPC)
[19] = dose: 400.0 mg/kg/injection, schedule: Q01DX009 (ip), vehicle: Klucel (hydroxypropylcellulose) (HPC)
[20] = dose: 400.0 mg/kg/injection, schedule: Q01DX001 (ip), vehicle: carboxymethylcellulose (CMC)

SMILES: C1CCC2C(C1)CCC1C3CCCC3OCN21 (configuration not stated)
- T/C [1]: 96 % of control
- T/C [2]: 96 % of control
- T/C [3]: 93 % of control

SMILES: CCCCOC(=O)c1ccc2c(ccc[n+]2C)c1
- T/C (dose: 75.0 mg/kg/injection, schedule: Q01DX001 (ip), vehicle: saline): 95 % of control
- T/C (dose: 75.0 mg/kg/injection, schedule: Q04DX003 (ip), vehicle: saline): 112 % of control
- T/C (dose: 150.0 mg/kg/injection, schedule: Q01DX001 (ip), vehicle: saline): 101 % of control
- T/C (dose: 150.0 mg/kg/injection, schedule: Q04DX003 (ip), vehicle: saline): 105 % of control
- T/C (dose: 300.0 mg/kg/injection, schedule: Q01DX001 (ip), vehicle: saline): 100 % of control
- T/C (dose: 300.0 mg/kg/injection, schedule: Q04DX003 (ip), vehicle: saline): 96 % of control

SMILES: NC(=O)CS
- T/C [4]: 96 % of control
- T/C [5]: 105 % of control

SMILES: CC(=Nc1ccccc1)NO
- T/C (dose: 50.0 mg/kg/injection, schedule: Q01DX009 (ip), vehicle: acetone): 94 % of control
- T/C [6]: 97 % of control
- T/C [7]: 96 % of control
- T/C [8]: 100 % of control
- T/C (dose: 200.0 mg/kg/injection, schedule: Q04DX003 (ip), vehicle: saline): 108 % of control
- T/C (dose: 400.0 mg/kg/injection, schedule: Q04DX003 (ip), vehicle: saline): 96 % of control

SMILES: CCCCOC(=O)C1CCCC1=O (configuration not stated)
- T/C [9]: 94 % of control
- T/C [10]: 97 % of control
- T/C [11]: 103 % of control
- T/C [12]: 94 % of control
- T/C [13]: 95 % of control
- T/C [14]: 97 % of control

SMILES: CCN(CC)CCCC(C)Nc1c2ccc(Cl)cc2nc2ccc(OC)cc12 (configuration not stated)
- T/C (dose: 7.5 mg/kg/injection, schedule: Q01DX Z (ip), vehicle: saline): 93 % of control
- T/C (dose: 15.0 mg/kg/injection, schedule: Q01DX Z (ip), vehicle: saline): 95 % of control
- T/C (dose: 25.0 mg/kg/injection, schedule: Q01DX015 (ip), vehicle: carboxymethylcellulose (CMC)): 102 % of control
- T/C (dose: 30.0 mg/kg/injection, schedule: Q01DX Z (ip), vehicle: saline): 96 % of control
- T/C (dose: 50.0 mg/kg/injection, schedule: Q01DX015 (ip), vehicle: carboxymethylcellulose (CMC)): 102 % of control
- T/C (dose: 50.0 mg/kg/injection, schedule: Q01DX Z (ip), vehicle: water): 104 % of control
- T/C [15]: 96 % of control
- T/C (dose: 100.0 mg/kg/injection, schedule: Q01DX015 (ip), vehicle: carboxymethylcellulose (CMC)): 102 % of control
- T/C [16]: 116 % of control

SMILES: CCOC(=O)c1c(C)[nH]c2c1C(=O)C(=O)C=C2
- T/C [4]: 90 % of control

SMILES: CCC(=Nc1ccccc1)Nc1ccccc1
- T/C (dose: 100.0 mg/kg/injection, schedule: Q04DX002 (ip), vehicle: Klucel (hydroxypropylcellulose) (HPC)): 106 % of control
- T/C (dose: 200.0 mg/kg/injection, schedule: Q04DX002 (ip), vehicle: Klucel (hydroxypropylcellulose) (HPC)): 106 % of control
- T/C (dose: 400.0 mg/kg/injection, schedule: Q04DX002 (ip), vehicle: Klucel (hydroxypropylcellulose) (HPC)): 109 % of control

SMILES: Cc1cc(C)c(NC(=O)c2ccccc2F)cc1C
- T/C [17]: 101 % of control
- T/C [18]: 100 % of control
- T/C [19]: 97 % of control

SMILES: Clc1onc(-c2ccccc2)c1-c1ccccc1
- T/C [9]: 101 % of control
- T/C [10]: 107 % of control
- T/C [11]: 110 % of control
- T/C [12]: 90 % of control
- T/C [13]: 97 % of control
- T/C [14]: 91 % of control

SMILES: OCC1OC(n2cnc3c(=S)nc(NO)[nH]c32)C(O)C1O (configuration not stated)
- T/C (dose: 12.5 mg/kg/injection, schedule: Q01DX005 (ip), vehicle: saline): 165 % of control
- T/C (dose: 50.0 mg/kg/injection, schedule: Q01DX005 (ip), vehicle: saline): 88 % of control
- T/C (dose: 100.0 mg/kg/injection, schedule: Q01DX005 (ip), vehicle: saline): 107 % of control

SMILES: Cc1cc(/C=C/C2=[N+](C)c3ccc(F)cc3C2(C)C)c(O)c2ncccc12
- T/C [15]: 98 % of control
- T/C [16]: 90 % of control
- T/C [20]: 93 % of control

SMILES: O=C(OC/C=C/CC(Cl)(Cl)Cl)C(Cl)(Cl)Cl
- T/C [4]: 104 % of control
- T/C [6]: 93 % of control
- T/C (dose: 100.0 mg/kg/injection, schedule: Q04DX003 (ip), vehicle: acetone): 109 % of control
- T/C [5]: 112 % of control
- T/C [8]: 90 % of control
- T/C (dose: 200.0 mg/kg/injection, schedule: Q04DX003 (ip), vehicle: acetone): 103 % of control
- T/C (dose: 400.0 mg/kg/injection, schedule: Q01DX001 (ip), vehicle: saline): 102 % of control
- T/C (dose: 400.0 mg/kg/injection, schedule: Q04DX003 (ip), vehicle: acetone): 93 % of control

SMILES: N\C([S-])=N/N=C\C(=N/N=C(\N)[S-])C(O)C(O)C(O)CO.[Rh+2] (configuration not stated)
- T/C (dose: 100.0 mg/kg/injection, schedule: Q04DX003 (ip), vehicle: other): 106 % of control
- T/C (dose: 200.0 mg/kg/injection, schedule: Q04DX003 (ip), vehicle: other): 93 % of control
- T/C (dose: 400.0 mg/kg/injection, schedule: Q04DX003 (ip), vehicle: other): 98 % of control

SMILES: CCOC(=O)C(C(=O)OCC)C(C)c1ccc([N+](=O)[O-])cc1 (configuration not stated)
- T/C [9]: 106 % of control
- T/C [1]: 100 % of control
- T/C [11]: 106 % of control
- T/C [2]: 103 % of control
- T/C [13]: 113 % of control
- T/C [3]: 92 % of control

SMILES: O=S(=O)(F)c1cc(Cl)ccc1C[P+](c1ccccc1)(c1ccccc1)c1ccccc1
- T/C (dose: 10.0 mg/kg/injection, schedule: Q04DX003 (ip), vehicle: saline): 97 % of control
- T/C (dose: 20.0 mg/kg/injection, schedule: Q04DX003 (ip), vehicle: saline): 89 % of control

SMILES: COCCN1CCC(CN2c3ccccc3Sc3ccccc32)C1 (configuration not stated)
- T/C [7]: 111 % of control

SMILES: O=C(Cl)c1ccc(N2C(=O)c3ccccc3C2=O)cc1[N+](=O)[O-]
- T/C [9]: 98 % of control
- T/C [10]: 102 % of control
- T/C [11]: 97 % of control
- T/C [12]: 98 % of control
- T/C [13]: 106 % of control
- T/C [14]: 100 % of control

SMILES: O=C1c2cc(Br)cc(Br)c2NCCC1(Br)Br
- T/C [15]: 91 % of control
- T/C [16]: 91 % of control
- T/C [20]: 94 % of control

SMILES: CCOC(=O)C1=NN(c2ccccc2)C(=O)C1
- T/C [17]: 105 % of control
- T/C (dose: 100.0 mg/kg/injection, schedule: Q04DX003 (ip), vehicle: Klucel (hydroxypropylcellulose) (HPC)): 98 % of control
- T/C [10]: 94 % of control
- T/C [18]: 103 % of control
- T/C (dose: 200.0 mg/kg/injection, schedule: Q04DX003 (ip), vehicle: Klucel (hydroxypropylcellulose) (HPC)): 96 % of control
- T/C [12]: 100 % of control
- T/C [19]: 92 % of control
- T/C (dose: 400.0 mg/kg/injection, schedule: Q04DX003 (ip), vehicle: Klucel (hydroxypropylcellulose) (HPC)): 102 % of control
- T/C [14]: 93 % of control

SMILES: O=C(NCCCN1CC1)C(=O)NCCCN1CC1
- T/C (dose: 1.5 mg/kg/injection, schedule: Q04DX003 (ip), vehicle: Klucel (hydroxypropylcellulose) (HPC)): 121 % of control
- T/C (dose: 2.3 mg/kg/injection, schedule: Q04DX003 (ip), vehicle: Klucel (hydroxypropylcellulose) (HPC)): 110 % of control
- T/C (dose: 3.12 mg/kg/injection, schedule: Q04DX003 (ip), vehicle: Klucel (hydroxypropylcellulose) (HPC)): 112 % of control
- T/C (dose: 5.3 mg/kg/injection, schedule: Q04DX003 (ip), vehicle: Klucel (hydroxypropylcellulose) (HPC)): 166 % of control
- T/C (dose: 8.0 mg/kg/injection, schedule: Q04DX003 (ip), vehicle: Klucel (hydroxypropylcellulose) (HPC)): 173 % of control
- T/C (dose: 12.0 mg/kg/injection, schedule: Q04DX003 (ip), vehicle: Klucel (hydroxypropylcellulose) (HPC)): 215 % of control
- T/C (dose: 12.5 mg/kg/injection, schedule: Q04DX003 (ip), vehicle: Klucel (hydroxypropylcellulose) (HPC)): 180 % of control
- T/C (dose: 18.0 mg/kg/injection, schedule: Q04DX003 (ip), vehicle: Klucel (hydroxypropylcellulose) (HPC)): 183 % of control

SMILES: Nc1nc(N)c(-c2ccccc2)c(C=O)n1
- T/C [10]: 110 % of control
- T/C [12]: 117 % of control
- T/C [14]: 110 % of control

SMILES: O=C(O)c1cccc2c1-c1ccccc1C(Br)C2Br (configuration not stated)
- T/C [2]: 101 % of control

SMILES: CCCCOP(=O)(Cc1ccccc1)Oc1ccccc1 (configuration not stated)
- T/C [17]: 95 % of control
- T/C [18]: 97 % of control
- T/C [19]: 105 % of control

SMILES: CCOCC(=O)Oc1ccc(/C=N/NC(N)=S)nc1
- T/C [1]: 116 % of control
- T/C [2]: 113 % of control
- T/C [3]: 116 % of control
